Experiment [1] has as its system DMM mice. The experiment in a line: Anterior femoral synovial membrane thickness in DMM mice. Format: in vivo, mouse. The following applies: daily ip week 8 to 12, versus vehicle. Here is the method:
Drug treatment studies: In twelve-week old male wild type C57BL/6 mice that received DMM surgeries, vehicle (PBS), paroxetine (5 mg/kg/day), fluoxetine (5 mg/kg/day), gallein (10 mg/kg/day) or indomethacin (2.5 mg/kg/day) were administered daily by ip injection. Drug treatment was initiated 8 weeks following DMM to determine the role of GRK2 signaling in the progression of OA. Using Safranin-O/Fast Green-stained sections, the OsteoMetrics system was used to quantify the above parameters on three sections from representative levels (50 μm apart) of the medial compartment of the joint for each sample. Live images of the center of the knee joint were collected through an Olympus microscope (10× objective) outfitted with a camera, a stylus was used to trace the regions of interest (ROIs). A blinded observer quantified uncalcified articular cartilage area, total chondrocyte number and matrix-producing chondrocyte number using the built-in area calculation algorithms and quantification functions of the OsteoMeasure® system. […] The calcified cartilage was determined with a line drawn along the tide mark, which is the naturally occurring line separating the calcified and uncalcified regions of the articular cartilage. A second line was drawn at the chondro-osseous junction where the calcified cartilage meets the subchondral bone. The uncalcified cartilage area was determined by subtracting the calcified cartilage area from the total area of cartilage. Total chondrocyte number and matrix-producing chondrocyte number were counted within the uncalcified cartilage region using count functions within the histomorphometry system. Matrix-producing chondrocytes were counted based on the region of Safranin-O staining within the extracellular matrix surrounding the articular chondrocyte, indicating anabolic signaling to maintain matrix homeostasis. Similarly, the anterior femoral synovial thickness was measured using OsteoMeasure® software. Synovial membrane thickness extending from anterior horn of the medial meniscus to the femur was determined by drawing a line from the inner insertion point on the femur towards the attachment on the meniscus. A second line was drawn from the outer insertion of the femur towards the attachment to the meniscus. The synovial thickness was calculated by dividing total synovial area by synovial perimeter.

For experiment [2], the system named is human OA cartilage. The experiment in a line: Ex vivo cultured human OA osteochondral plugs: cAMP assay. Format: cell-based. The following applies: paroxetine 5 μM or gallein 10 μM, 48 hrs, versus vehicle. The text has this:
An Institutional Review Board-approved protocol was executed to collect discarded de-identified cartilage from patients. For the experiment described in FIG. 3A, we obtained acutely injured human cartilage (from patients undergoing arthroscopic surgery 4 weeks following meniscal injury, N=6) and OA cartilage (from patients undergoing arthroplasty, N=6). Normal controls were obtained from amputees' knees (N=6). Cartilage was fixed in formalin then processed and embedded in paraffin, 5-μm sections were used for immunofluorescence (IF) staining. For the experiment described in FIG. 7, OA osteochondral tissue was collected from patients undergoing total knee arthroplasty. Osteochondral plugs (8-mm diameter) were obtained and bone was flushed with saline solution to remove all bone marrow and blood cells. […] Gas activity was measured by quantifying cAMP content in cartilage pooled from 3 mice. […] Frozen cartilage was pulverized using 500 μL lysis buffer as we have previously described (H. K. Le Bleu, Anal Biochem, 518, 134-138 (2017)). cAMP content was quantified using the Cyclic AMP XP Assay kit (Cell Signaling, #4339) and following manufacturer's protocol, with 0.5 mM IBMX added to the lysis buffer to prevent phosphodiesterase mediated cAMP degradation during the extraction process. cAMP levels in different groups were normalized to that of sham mice or the vehicle treated human cartilage.

Experiment [3] concerns DMM mice. The experiment in a line: Response threshold to mechanical pain stimulus in DMM mice. Format: in vivo, mouse. The following applies: daily treatment week 8 to 12, measured 12 weeks following DMM. The text has this:
Paroxetine attenuates pain sensitivity of DMM mice. Response threshold to mechanical pain stimulus measured in sham mice and DMM mice 12 weeks following DMM. DMM mice received respective daily treatments from week 8 until week 12 following DMM: vehicle (V) or Paroxetine (Px). *P<0.05 & ***P<0.001.

Experiment [4] deals with DMM mice. The experiment in a line: DMM mice treated with PTH, paroxetine or their combination: histology and histomorphometry (Example 1). Format: in vivo, mouse. The following applies: treatment week 8 to 12, PTH sc 40 μg/kg/day, paroxetine ip 5 mg/kg/day. Here is the method: Methods: Destabilization of the medial meniscus (DMM) surgery was used to simulate clinical post-traumatic OA. First, we determined the role of GRK2 inhibition in PTH1R Gas-cAMP signaling: 12 week old male mice underwent sham or DMM surgery and were treated with either vehicle or the GRK2 inhibitor “paroxetine” (ip, 5 mg/kg/day), treatment was initiated at the time of surgery and continued daily until 8 weeks. Knees were harvested and articular cartilage was obtained for ex vivo analysis of Gas activity. In ex vivo culture, cartilage explants were treated with PTH as an agonist to stimulate PTH1R-Ga-cAMP signaling. Thirty minutes following PTH stimulation, cartilage tissue was homogenized and cAMP levels were measured. Then, we determined the role of GRK2 inhibition in recovering or even potentiating PTH1R signaling in OA cartilage: 12 week old male mice underwent sham or DMM surgery, and received treatment with vehicle, PTH (sc, 40 μg/kg/day) alone, the GRK2 inhibitor “paroxetine3” (ip, 5 mg/kg/day) alone, or their combination. Treatment was initiated at week 8 following DMM surgery, where OA is in progress, and continued until week 12 where mice were sacrificed. Knees were harvested, paraffin embedded, sectioned and stained with safranin-o and fast green for histological evaluation, OARSI scoring, and histomorphometric analysis. Results are expressed as mean values+s.e.m. with an N=5-8 mice per experimental group. Statistical analyses were performed using one ANVOA with P<0.05 representing statistical significance.

The subject of experiment [5] is PTH1R Gas/cAMP signaling. The experiment in a line: PTH-stimulated cAMP in articular cartilage explants of sham or DMM mice treated with paroxetine. Also noted: species or system mouse. The following applies: paroxetine ip 5 mg/kg/day for 8 weeks, cartilage stimulated with PTH ex vivo, 30 minutes. The protocol: Methods: Destabilization of the medial meniscus (DMM) surgery was used to simulate clinical post-traumatic OA. First, we determined the role of GRK2 inhibition in PTH1R Gas-cAMP signaling: 12 week old male mice underwent sham or DMM surgery and were treated with either vehicle or the GRK2 inhibitor “paroxetine” (ip, 5 mg/kg/day), treatment was initiated at the time of surgery and continued daily until 8 weeks. Knees were harvested and articular cartilage was obtained for ex vivo analysis of Gas activity. In ex vivo culture, cartilage explants were treated with PTH as an agonist to stimulate PTH1R-Ga-cAMP signaling. Thirty minutes following PTH stimulation, cartilage tissue was homogenized and cAMP levels were measured. Then, we determined the role of GRK2 inhibition in recovering or even potentiating PTH1R signaling in OA cartilage: 12 week old male mice underwent sham or DMM surgery, and received treatment with vehicle, PTH (sc, 40 μg/kg/day) alone, the GRK2 inhibitor “paroxetine3” (ip, 5 mg/kg/day) alone, or their combination. Treatment was initiated at week 8 following DMM surgery, where OA is in progress, and continued until week 12 where mice were sacrificed. […] Results are expressed as mean values+s.e.m. with an N=5-8 mice per experimental group. […]

Experiment [6] deals with DMM mice. The experiment in a line: Gait (stride length) in DMM mice. Format: in vivo, mouse. The following applies: daily treatment week 8 to 12, measured 12 weeks following DMM. The text has this:
Paroxetine normalizes changes in the gait of DMM mice. Stride length in centimeters measured for sham mice and DMM mice 12 weeks following DMM. DMM mice received respective daily treatments from week 8 until week 12 following DMM: vehicle (V) or Paroxetine (Px). **P<0.01 & ***P<0.001

Regarding `O=C1OC2(c3ccccc31)c1ccc(O)c(O)c1Oc1c2ccc(O)c1O` [gallein], the synovial membrane thickness result in experiment [1] is “as effective as indomethacin”. Moreover, the cAMP production entry in experiment [2] is on record as “significant increase”.

Regarding `Fc1ccc([C@@H]2CCNC[C@H]2COc2ccc3c(c2)OCO3)cc1` [paroxetine], in experiment [3], the “pain sensitivity (response threshold to mechanical pain stimulus)” value is “attenuates”. Besides, in experiment [4], the chondrocyte number result was “increased”, the “number of matrix-producing (anabolic) chondrocytes” value was “particular increase” and the uncalcified cartilage area entry is reported as “increased”. Moreover, the synovial membrane thickness entry in experiment [1] was “as effective as indomethacin”. Further, in experiment [2], the cAMP production result is recorded as “significant increase”. For the same compound, the “PTH/PTH1R-mediated cAMP production” value in experiment [5] (DMM mice) is “recovered”. Besides, the “PTH/PTH1R-mediated cAMP production” value in experiment [5] (sham mice) is listed as “potentiated”. Also, the “changes in the gait (stride length)” value in experiment [6] is listed as “normalizes”.

(Values after patent US20230404989A1, “GRK2 INHIBITION BY PAROXETINE AMELIORATES OSTEOARTHRITIS” (THE PENN STATE RESEARCH FOUNDATION, priority 2020, published 2023).)
